Experimental data reported in ChEMBL document CHEMBL4431381 (Bioorg Med Chem, 2016).
Activity calls are given as the source filed them. The rule behind the calls is not given here.

Tests used:
Mus musculus = species: Mus musculus; assay: Effect on carbachol-mediated persistant firing of entorhinal cortex in p75NTR deficient C57BL/6 mouse brain at 10 nM after 15 mins by current-clamp technique; assay type: functional
[1] = molecular target: T1, Tumor necrosis factor receptor superfamily member 16 (Rattus norvegicus) (UniProt P07174); assay: Binding affinity to p75NTR in Long-Evans rat brain at 300 uCi incubated for 40 mins followed by compound wash out for 10 secs and addition of compound for 2 hrs by autoradiographic analysis; assay type: tissue-based; conditions: tested as the 11C-labelled form
T1 sequence (whole entry): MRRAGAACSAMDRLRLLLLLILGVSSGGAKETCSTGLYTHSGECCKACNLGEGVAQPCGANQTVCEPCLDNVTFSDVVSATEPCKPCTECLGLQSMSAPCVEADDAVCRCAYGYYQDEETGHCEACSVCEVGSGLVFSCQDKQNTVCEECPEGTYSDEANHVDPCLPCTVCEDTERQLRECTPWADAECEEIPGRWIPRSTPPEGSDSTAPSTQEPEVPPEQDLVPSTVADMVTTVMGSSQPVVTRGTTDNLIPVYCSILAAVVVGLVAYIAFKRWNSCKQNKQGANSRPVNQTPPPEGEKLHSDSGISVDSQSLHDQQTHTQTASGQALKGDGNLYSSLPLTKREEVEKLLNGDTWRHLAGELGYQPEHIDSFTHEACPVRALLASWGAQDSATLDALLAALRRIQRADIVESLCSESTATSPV

[2] = Hydrophilicity, logD of the compound; assay type: physicochemical; conditions: octanol/water
[3] = molecular target: T2, Tumor necrosis factor receptor superfamily member 16 (Mus musculus, UniProt Q9Z0W1); assay: (§1) Activation of p75NTR in C57BL/6 mouse brain assessed as suppression of carbachol-mediated persistant firing of entorhinal cortex after 15 mins by current-clamp technique; assay type: tissue-based
T2 sequence (Q9Z0W1 whole entry): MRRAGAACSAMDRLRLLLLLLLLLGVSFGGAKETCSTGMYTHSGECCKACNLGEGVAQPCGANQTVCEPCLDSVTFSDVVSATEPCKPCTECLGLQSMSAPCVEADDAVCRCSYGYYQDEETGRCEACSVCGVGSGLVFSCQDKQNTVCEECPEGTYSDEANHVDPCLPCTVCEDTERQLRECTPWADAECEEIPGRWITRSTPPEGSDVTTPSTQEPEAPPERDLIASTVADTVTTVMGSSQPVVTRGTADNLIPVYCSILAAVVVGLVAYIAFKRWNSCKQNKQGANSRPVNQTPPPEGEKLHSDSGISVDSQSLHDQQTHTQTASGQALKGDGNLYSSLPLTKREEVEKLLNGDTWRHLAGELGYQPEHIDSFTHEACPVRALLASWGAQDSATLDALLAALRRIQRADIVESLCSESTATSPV

[4] = molecular target: T3, Tumor necrosis factor receptor superfamily member 16 (Mus musculus) (UniProt Q9Z0W1); assay: as §1; assay type: tissue-based
T3 sequence (whole entry): T2 sequence (Q9Z0W1 whole entry)

[5] = Drug uptake in Long-Evans rat brain at 0.4 mCi, iv through bolus administration by PET analysis; assay type: ADME, organism-based; conditions: in vivo
[6] = Drug uptake in C57BL/6 mouse brain incubated for 40 mins followed by compound wash out for 10 secs and addition of compound for 30 to 60 mins in presence of 10 uM LM11A-24 by autoradiographic analysis; assay type: ADME, tissue-based
[7] = Drug uptake in C57BL/6 mouse brain incubated for 40 mins followed by compound wash out for 10 secs and addition of compound for 30 to 60 mins by autoradiographic analysis; assay type: ADME, tissue-based
[8] = Drug uptake in C57BL/6 mouse DRG neurons incubated for 40 mins followed by compound wash out for 10 secs and addition of compound for 30 to 60 mins by autoradiographic analysis; assay type: ADME, cell-based; conditions: drg neuron
[9] = Drug uptake in C57BL/6 mouse brain incubated for 40 mins followed by compound wash out for 10 secs and addition of compound for 30 to 60 mins in presence of 400 uM LM11A-24 by autoradiographic analysis; assay type: ADME, tissue-based
[10] = Drug uptake in C57BL/6 mouse DRG neurons incubated for 40 mins measured after 30 to 60 mins by autoradiographic analysis; assay type: ADME, cell-based; conditions: drg neuron
[11] = Drug uptake in Long-Evans rat bladder at 0.4 mCi, iv through bolus administration by PET analysis; assay type: ADME, organism-based, Urinary bladder; conditions: in vivo

Structure (SMILES)	Activity (Mus musculus)	Activity [1]	logD [2]	EC50 [3] [µM]	Activity [4]	Drug uptake [5]	Drug uptake [6]	Drug uptake [7]	Drug uptake [8]	Drug uptake [9]	Drug uptake [10]	Drug uptake [11]
CN(C)CCCNC(=O)Cn1cnc2c1c(=O)n(C)c(=O)n2C	inactive	inactive	-3	< 0.01	Dose-dependent effect							
CN([11CH3])CCCNC(=O)Cn1cnc2c1c(=O)n(C)c(=O)n2C						Not Active	Active	Active	Not Active	Active	Not Active	Active
